# Measured values taken from US20050075271A1, “Crystalline beta2 adrenergic receptor agonist” (priority 2002, published 2005).
# Tests used:
# Assay type in all cases: physicochemical
# [1] = Stability testing of aqueous nebulizer formulation (Formulation Example 1), HPLC, 1-4 months storage; details: for Percent of active compound remaining: aqueous formulation 0.1 mg/g, pH 5.00
# Protocol: (§1) An aqueous aerosol formulation for nebulizer administration having 0.1 mg of the active compound, compound 1, per gram of solution was prepared by the following procedure. Citric acid (755.8 mg) was added to a vessel charged with 0.9% sodium chloride solution (325.7 g). The active ingredient (42.3 mg) was added to the sodium chloride solution and the resulting mixture was stirred for 5 min and sonicated for 7 min to dissolve the active ingredient. The intial pH of the solution was determined to be 2.54. 1 N NaOH (7.1 g) was slowly added to the solution to obtain a final pH of 5.00. An additional amount of 0.9% sodium chloride solution (26.7 g) was added and the resulting solution was stirred to provide the aqueous formulation (360.3 g).
# Aliquots of the formulation prepared as in Example 1 were stored at −20° C., 5° C., room temperature, and 40° C. Samples were removed for analysis by HPLC at 1 month intervals. HPLC analysis was conducted using a Zorbax RP-bonus, C14, 25 cm×4.6 mm column, equilibrated at 35° C. The mobile phases used were: A: 0.1% TFA in 98:2 water:acetonitrile; and B: 0.1% TFA in 10:90 water:acetonitrile. Detection was by UV absorbance at 215 nm. A flow rate of 1.0 mL/min and a gradient of 0 to 60% B over 20 minutes was utilized. The percent of active compound 1 remaining after the indicated period, normalized to the sample stored at −20° C. is given in Table 1 below.
# [2] = Second stability test of aqueous nebulizer formulation, HPLC, 4-9 months storage; details: nine months at 5° C.
# [3] = as above; details: normalized to −20° C. sample
# Protocol: as §1
# In a second stability test, aliquots were prepared and stored as above. Samples were removed for analysis by HPLC at various intervals. HPLC analysis was conducted using a MAC MOD Ace-5, C18, 25 cm×4.6 mm, 5 μm column, equilibrated at 30° C. The mobile phases were as described above. Detection was by UV absorbance at 244 nm. The initial condition was 6% phase B. A flow rate of 1.0 mL/min and a gradient of 6 to 30% B over 25 min, 30% to 60% B in 10 min and 60% to 100% B in 2 min were utilized. The retention time of compound 1 was approximately 20 min. The percent of active compound 1 remaining after the indicated period, normalized to the sample stored at −20° C. is given in Table 2 below.
# [4] = Solid state stability testing of crystalline diHCl salt, ground and unground, 30 days (DSC, TGA, XRPD, HPLC); details: for crystal stability by DSC after exposure to elevated temperature and humidity: 40° C. and 75% relative humidity vs room temperature desiccator, ground and unground samples, dihydrochloride
# Protocol: A single lot of the crystalline diHCl salt of compound 1]prepared as in Example 6, was used to prepare four samples of approximately 30 mg each. Two samples were ground to fine particles with a mortar and pestle. Two samples, one ground and one that had not been processed, were stored in a closed chamber at 40° C. and 75% relative humidity for 30 days and two samples, one ground and one that had not been processed, were stored at room temperature in a desiccators for the same period. Samples were withdrawn for analysis by DSC and TGA at 11 days and by XRPD and HPLC at 30 days.
# X-ray powder diffraction patterns were obtained with a Shimadzu 6000 diffractometer using Cu Kα (40.0 kV, 35.0 mA) radiation. The analysis was performed with the goniometer running in continuous-scan mode of 2°/min with a step size of 0.02° over a range of 4 to 45°. Samples were prepared on glass specimen holders as a thin layer of powdered material.
# Differential scanning calorimetry traces were obtained with a TA instruments model DSC2010. Samples were placed in sealed aluminum pans for analysis with an empty pan serving as the reference. Samples were equilibrated at 30° C. and heated at 5° C. per minute to a temperature of 300° C. The instrument was calibrated with an indium standard.
# (§2) Thermogravimetric analysis was conducted using a TA instruments model Q50. Samples were weighed in aluminum pans and heated from 50° C. to 300° C. at a rate of 10° C./min. Water content was estimated by measuring the total weight loss between 50° and 120° C. (a range in which no significant decomposition was observed).
# (§3) Unless otherwise indicated, HPLC analysis was conducted using a Zorbax RP-bonus, C14, 25 cm×4.6 mm column, equilibrated at 35° C. The mobile phases used were: A: 0.1% TFA in 98:2 water:acetonitrile; and B: 0.1% TFA in 10:90 water:acetonitrile. Detection was by UV absorbance at 215 nm. A flow rate of 1.0 mL/min and a gradient of 0 to 60% B over 20 minutes was utilized. The diHCl salt of compound 1 gave a retention time of 11.7 min.
# [5] = Solid state stability of recrystallized diHCl salt, 6 months at 40° C. and 75% relative humidity
# Protocol: In another test, samples of the recrystallized diHCl salt of Example 7a were stored at 40° C. and 75% relative humidity.
# as §2, §3
# Chiral purity was determined using a Beckman P/ACE MDQ capillary electrophoresis system. The analysis was performed at pH 2.5 using heptakis-(2,3,-diacetyl-6-sulfato)-β-cyclodextrin (HDAS-β-CD) as the chiral selector and using a 50 μm×31.2 cm fused silica capillary. Detection was by UV absorbance at 200 nm. The four stereoisomers migrate in the following order: SS, RS, SR, RR, where compound 1 is designated as RR.
# [6] = 40° C. and 75% relative humidity, 30 days, ground and unground
# [7] = 6 months at 40° C. and 75% relative humidity
structure (smiles),measurement,setting,value
"O=CNc1cc([C@@H](O)CNCCc2ccc(NC[C@H](O)c3ccccc3)cc2)ccc1O [compound 1, N-{2-[4-((R)-2-hydroxy-2-phenylethylamino)phenyl]ethyl}-(R)-2-hydroxy-2-(3-formamido-4-hydroxyphenyl)ethylamine]",Percent of active compound remaining,"[1]; 5° C., 1 month, normalized to sample stored at −20° C.",101%
same,Percent of active compound remaining,"[1]; 5° C., 2 months, normalized to −20° C. sample",100%
same,Percent of active compound remaining,"[1]; 5° C., 3 months, normalized to −20° C. sample",100%
same,Percent of active compound remaining,"[1]; 5° C., 4 months, normalized to −20° C. sample",99%
same,Percent of active compound remaining,"[1]; 40° C., 1 month, normalized to −20° C. sample",94%
same,Percent of active compound remaining,"[1]; 40° C., 2 months, normalized to −20° C. sample",87%
same,Percent of active compound remaining,"[1]; 40° C., 3 months, normalized to −20° C. sample",72%
same,Percent of active compound remaining,"[1]; 40° C., 4 months, normalized to −20° C. sample",74%
same,chemical degradation of nebulizer solution upon storage (HPLC),"[1]; nebulizer solution 0.1 mg compound 1 per gram, four months at room temperature",no unacceptable chemical degradation
same,Percent of active compound remaining,"[1]; room temperature, 1 month, normalized to −20° C. sample",99%
same,Percent of active compound remaining,"[1]; room temperature, 2 months, normalized to −20° C. sample",99%
same,Percent of active compound remaining,"[1]; room temperature, 3 months, normalized to −20° C. sample",97%
same,Percent of active compound remaining,"[1]; room temperature, 4 months, normalized to −20° C. sample",96%
same,free base composition of nebulizer solution upon storage,[2],essentially unchanged
same,Percent of active compound remaining,"[3]; 5° C., 4 months",99%
same,Percent of active compound remaining,"[3]; 5° C., 5 months",99%
same,Percent of active compound remaining,"[3]; 5° C., 6 months",100%
same,Percent of active compound remaining,"[3]; 5° C., 9 months",99%
same,Percent of active compound remaining,"[3]; 40° C., 4 months",74%
same,Percent of active compound remaining,"[3]; 40° C., 5 months",69%
same,Percent of active compound remaining,"[3]; 40° C., 6 months",63%
same,Percent of active compound remaining,"[3]; room temperature, 4 months",97%
same,Percent of active compound remaining,"[3]; room temperature, 5 months",95%
same,Percent of active compound remaining,"[3]; room temperature, 6 months",94%
same,Percent of active compound remaining,"[3]; room temperature, 9 months",90%
"Cl.Cl.O=CNc1cc([C@@H](O)CNCCc2ccc(NC[C@H](O)c3ccccc3)cc2)ccc1O [crystalline diHCl salt of compound 1, N-{2-[4-((R)-2-hydroxy-2-phenylethylamino)phenyl]ethyl}-(R)-2-hydroxy-2-(3-formamido-4-hydroxyphenyl)ethylamine dihydrochloride]",crystal stability by DSC after exposure to elevated temperature and humidity,[4],no detectable effect on crystal stability
same,crystal stability by DSC after exposure to elevated temperature and humidity,[4]; listed as crystalline diHCl salt,no detectable difference
same,XRPD pattern after exposure to heat and humidity,[4]; [6],not appreciably affected
same,chemical degradation by HPLC,[4]; [6],no appreciable chemical degradation
same,water associated with crystals by TGA after exposure to high relative humidity,"[4]; 40° C. and 75% relative humidity, ground and unground crystals, 11 days",no appreciable quantity of water becomes associated
same,thermal stability,[4]; elevated temperatures,thermally stable
same,hygroscopicity,[4]; exposed to the atmosphere for prolonged periods at high relative humidity,neither hygroscopic nor deliquescent
same,decomposition on grinding into micronized particles,[4]; ground into micronized particles,without significant decomposition
same,water content,[5]; 6 mo at 40° C. and 75% relative humidity,0.37%
same,appearance of the material after storage,[5]; [7],no visible contamination
same,chemical purity by HPLC analysis after storage,[5]; [7],essentially unchanged
same,chiral purity after storage,[5]; [7],no change
same,water content,[5]; initially,0.12%
